Legend:
[1] = target: T1, human sphingosine-1-phosphate receptor 1 (S1P1) (Homo sapiens (Human), UniProt P21453); assay: Inhibition of cAMP production (HTRF cAMP HiRange), S1P1 CHO-K1 cells; format: cell-based; conditions: for Emax: CHO-K1, efficacy (SPAN) normalized to fingolimod, read-out: hS1P1 cAMP SPAN; for hS1P1 cAMP pEC50: inhibition of cAMP production, S1P1 CHO-K1 cells
In short: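 CHO-K1 cells stably co-expressing human S1P1 (C-terminal Prolink tag) and EA-β-arrestin2 were grown in AssayComplete Media 6 at 37° C. and 5% CO2, plated, and incubated overnight. Agonist-driven inhibition of intracellular cAMP was read by TR-FRET with the HTRF cAMP HiRange kit on a PheraStar reader. Potency is pEC50, and efficacy (SPAN) is normalized to fingolimod.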
Target sequence in this assay (P21453 whole entry, looked up): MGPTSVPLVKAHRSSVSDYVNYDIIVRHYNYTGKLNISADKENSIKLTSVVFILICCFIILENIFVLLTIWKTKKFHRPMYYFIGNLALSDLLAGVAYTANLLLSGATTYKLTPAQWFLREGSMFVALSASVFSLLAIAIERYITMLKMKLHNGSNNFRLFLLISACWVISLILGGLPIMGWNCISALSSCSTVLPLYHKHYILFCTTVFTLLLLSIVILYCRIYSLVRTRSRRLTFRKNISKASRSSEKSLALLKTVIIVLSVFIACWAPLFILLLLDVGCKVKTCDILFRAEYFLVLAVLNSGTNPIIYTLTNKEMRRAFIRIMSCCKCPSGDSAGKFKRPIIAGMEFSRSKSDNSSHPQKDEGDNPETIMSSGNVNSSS

[2] = target: T1, human sphingosine-1-phosphate receptor 1 (S1P1); assay: β-Arrestin2 recruitment assay (PathHunter), S1P1 CHO-K1 cells; format: cell-based; conditions: for Emax: CHO-K1, efficacy (SPAN) normalized to fingolimod, read-out: hS1P1 B-arrestin2 SPAN; for hS1P1 B-arrestin2 pEC50: β-arrestin2 recruitment, S1P1 CHO-K1 cells
In short: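 Enzyme-fragment complementation read-out: agonist-driven β-arrestin2 binding to ProLink-tagged human S1P1 in stable CHO-K1 cells restores β-galactosidase, measured 1 h at room temperature after a 60 min 37° C. compound incubation. Potency as pEC50, efficacy relative to fingolimod (SPAN).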
Target sequence in this assay (P21453 whole entry, looked up): as above
Target sequence in this assay (P32121 whole entry partner, looked up): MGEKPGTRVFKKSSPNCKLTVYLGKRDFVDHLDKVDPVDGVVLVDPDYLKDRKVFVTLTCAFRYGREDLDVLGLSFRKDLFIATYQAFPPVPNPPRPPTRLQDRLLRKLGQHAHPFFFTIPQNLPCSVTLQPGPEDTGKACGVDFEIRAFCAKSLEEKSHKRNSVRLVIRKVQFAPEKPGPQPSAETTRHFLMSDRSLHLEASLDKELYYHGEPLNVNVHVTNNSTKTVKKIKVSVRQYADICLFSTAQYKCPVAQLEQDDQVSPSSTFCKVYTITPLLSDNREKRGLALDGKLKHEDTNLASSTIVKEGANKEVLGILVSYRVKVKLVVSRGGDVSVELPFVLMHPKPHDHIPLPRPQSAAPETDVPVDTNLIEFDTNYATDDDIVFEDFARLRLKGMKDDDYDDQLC

Emax [1] [%] | hS1P1 cAMP pEC50 [1] | Emax [2] [%] | hS1P1 B-arrestin2 pEC50 [2] | Compound
> 75 | <6.5 | > 75 | <5 | CC(C)Oc1ccccc1-c1noc(-c2ccc3c(cnn3C(C)C)c2)n1 [Compound 334, 3-(2-isopropoxyphenyl)-5-(1-isopropyl-1H-indazol-5-yl)-1,2,4-oxadiazole]
< 75 | <6.5 | < 75 | <5 | COc1cccc(OC)c1-c1noc(-c2ccc3c(cnn3C(C)C)c2)n1 [Compound 335, 3-(2,6-dimethoxyphenyl)-5-(1-isopropylindazol-5-yl)-1,2,4-oxadiazole]
> 75 | >6.5 | < 75 | >5 | CC(C)n1ncc2cc(-c3nc(-c4cccc5c4OCO5)no3)ccc21 [Compound 336, 3-(benzo[d][1,3]dioxol-4-yl)-5-(1-isopropyl-1H-indazol-5-yl)-1,2,4-oxadiazole]
> 75 | >6.5 | > 75 | >5 | CC(C)n1ncc2cc(-c3nc(-c4cccc5c4OCCC5)no3)ccc21 [Compound 337, 3-chroman-8-yl-5-(1-isopropylindazol-5-yl)-1,2,4-oxadiazole]
> 75 | <6.5 | > 75 | <5 | COc1cccc(F)c1-c1noc(-c2ccc3c(cnn3C(C)C)c2)n1 [Compound 338, 3-(2-fluoro-6-methoxy-phenyl)-5-(1-isopropylindazol-5-yl)-1,2,4-oxadiazole]
 | <6.5 |  | <5 | COc1ccccc1-c1nnc(-c2ccc3[nH]oc(=O)c3c2)o1 [Compound 339, 5-[5-(2-methoxyphenyl)-1,3,4-oxadiazol-2-yl]-1,3-dihydro-2,1-benzoxazol-3-one]
 | <6.5 |  | <5 | COc1ccccc1-c1nnc(-c2ccc3c(c2)c(=O)on3C)o1 [Compound 340, 5-[5-(2-methoxyphenyl)-1,3,4-oxadiazol-2-yl]-1-methyl-1,3-dihydro-2,1-benzoxazol-3-one]
 | <6.5 |  | <5 | COc1ccccc1-c1nnc(-c2ccc3c(c2)CCC(=O)N3)o1 [Compound 341, 6-[5-(2-methoxyphenyl)-1,3,4-oxadiazol-2-yl]-1,2,3,4-tetrahydroquinolin-2-one]
< 75 | <6.5 | < 75 | <5 | COC(=O)NS(=O)(=O)n1c(=O)oc2cc(-c3nnc(-c4ccccc4OC)o3)ccc21 [Compound 342, methyl N-({6-[5-(2-methoxyphenyl)-1,3,4-oxadiazol-2-yl]-2-oxo-2,3-dihydro-1,3-benzoxazol-3-yl}sulfonyl)carbamate]
> 75 | >6.5 | > 75 | >5 | N#Cc1cc(-c2nc(-c3ccc4c(c3)CCC(=O)N4)no2)ccc1NCCF [Compound 343, 2-[(2-fluoroethyl)amino]-5-[3-(2-oxo-1,2,3,4-tetrahydroquinolin-6-yl)-1,2,4-oxadiazol-5-yl]benzonitrile]
> 75 | >6.5 | > 75 | >5 | N#Cc1cc(-c2nc(-c3ccc4c(c3)CCC(=O)N4)no2)ccc1NCC(F)F [Compound 344, 2-[(2,2-difluoroethyl)amino]-5-[3-(2-oxo-1,2,3,4-tetrahydroquinolin-6-yl)-1,2,4-oxadiazol-5-yl]benzonitrile]
< 75 | <6.5 | < 75 | <5 | N#Cc1cc(-c2nc(-c3ccc4c(c3)CCC(=O)N4)no2)ccc1N [Compound 345, 2-amino-5-[3-(2-oxo-1,2,3,4-tetrahydroquinolin-6-yl)-1,2,4-oxadiazol-5-yl]benzonitrile]
> 75 | >6.5 | > 75 | >5 | C=C(F)CNc1ccc(-c2nc(-c3ccc4c(c3)CCC(=O)N4)no2)cc1C#N [Compound 346, 2-[(2-fluoroprop-2-en-1-yl)amino]-5-[3-(2-oxo-1,2,3,4-tetrahydroquinolin-6-yl)-1,2,4-oxadiazol-5-yl]benzonitrile]
> 75 | >6.5 | > 75 | >5 | CC(F)(F)CNc1ccc(-c2nc(-c3ccc4c(c3)CCC(=O)N4)no2)cc1C#N [Compound 347, 2-[(2,2-difluoropropyl)amino]-5-[3-(2-oxo-1,2,3,4-tetrahydroquinolin-6-yl)-1,2,4-oxadiazol-5-yl]benzonitrile]
< 75 | >6.5 | < 75 | <5 | COc1ccccc1-c1nnc(-c2ccc3[nH]c(=O)oc3c2)o1 [Compound 349, 6-[5-(2-methoxyphenyl)-1,3,4-oxadiazol-2-yl]-2,3-dihydro-1,3-benzoxazol-2-one]
> 75 | >6.5 | > 75 | >5 | CC(C)Nc1ccc(-c2nnc(-c3ccc4[nH]ncc4c3)o2)cc1C#N [Compound 351, 5-[5-(1H-indazol-5-yl)-1,3,4-oxadiazol-2-yl]-2-[(propan-2-yl)amino]benzonitrile]

The next lines start with the molecule.

Compound | Emax [1] [%] | hS1P1 cAMP pEC50 [1] | Emax [2] [%] | hS1P1 B-arrestin2 pEC50 [2]
CC(C)n1ccc2cc(-c3nc(-c4ccccc4Br)no3)ccc21 [Compound 322, 3-(2-bromophenyl)-5-(1-isopropyl-1H-indol-5-yl)-1,2,4-oxadiazole] | > 75 | >6.5 | > 75 | >5
CC(C)n1ccc2cc(-c3nc(-c4ccccc4O)no3)ccc21 [Compound 323, 2-(5-(1-isopropyl-1H-indol-5-yl)-1,2,4-oxadiazol-3-yl)phenol] | > 75 | <6.5 | > 75 | <5
CC(C)Oc1ccccc1-c1noc(-c2ccc3c(ccn3C(C)C)c2)n1 [Compound 324, 3-(2-isopropoxyphenyl)-5-(1-isopropyl-1H-indol-5-yl)-1,2,4-oxadiazole] | < 75 | <6.5 | < 75 | <5
COc1cccc(OC)c1-c1noc(-c2ccc3c(ccn3C(C)C)c2)n1 [Compound 325, 3-(2,6-dimethoxyphenyl)-5-(1-isopropylindol-5-yl)-1,2,4-oxadiazole] | < 75 | <6.5 | < 75 | <5
CC(C)n1ccc2cc(-c3nc(-c4cccc5c4OCO5)no3)ccc21 [Compound 326, 3-(benzo[d][1,3]dioxol-4-yl)-5-(1-isopropyl-1H-indol-5-yl)-1,2,4-oxadiazole] | > 75 | <6.5 | > 75 | >5
CC(C)n1ccc2cc(-c3nc(-c4cccc5c4OCCC5)no3)ccc21 [Compound 327, 3-chroman-8-yl-5-(1-isopropylindol-5-yl)-1,2,4-oxadiazole] |  | <6.5 |  | >5
COc1cccc(F)c1-c1noc(-c2ccc3c(ccn3C(C)C)c2)n1 [Compound 328, 3-(2-fluoro-6-methoxy-phenyl)-5-(1-isopropylindol-5-yl)-1,2,4-oxadiazole] |  | <6.5 |  | >5
Cc1ccccc1-c1noc(-c2ccc3c(cnn3C(C)C)c2)n1 [Compound 329, 5-(1-isopropyl-1H-indazol-5-yl)-3-(o-tolyl)-1,2,4-oxadiazole] | > 75 | >6.5 | > 75 | >5
CC(C)n1ncc2cc(-c3nc(-c4ccccc4Cl)no3)ccc21 [Compound 330, 3-(2-chlorophenyl)-5-(1-isopropyl-1H-indazol-5-yl)-1,2,4-oxadiazole] | > 75 | >6.5 | > 75 | >5
CC(C)n1ncc2cc(-c3nc(-c4ccccc4OC(F)(F)F)no3)ccc21 [Compound 331, 5-(1-isopropyl-1H-indazol-5-yl)-3-(2-(trifluoromethoxy)phenyl)-1,2,4-oxadiazole] | > 75 | >6.5 | > 75 | >5
CC(C)n1ncc2cc(-c3nc(-c4ccccc4Br)no3)ccc21 [Compound 332, 3-(2-bromophenyl)-5-(1-isopropyl-1H-indazol-5-yl)-1,2,4-oxadiazole] | > 75 | >6.5 | > 75 | >5
CC(C)n1ncc2cc(-c3nc(-c4ccccc4O)no3)ccc21 [Compound 333, 2-(5-(1-isopropyl-1H-indazol-5-yl)-1,2,4-oxadiazol-3-yl)phenol] | > 75 | >6.5 | > 75 | <5
COc1ccccc1-c1nnc(-c2ccc3c(c2)oc(=O)n3C)o1 [Compound 350, 6-[5-(2-methoxyphenyl)-1,3,4-oxadiazol-2-yl]-3-methyl-2,3-dihydro-1,3-benzoxazol-2-one] | < 75 | <6.5 | < 75 | <5
